Data from patent publication EP0525063B1, “Use of specific fatty acids in the manufacture of a medicament for their Iontophoresis delivery” (priority 1990, dated 1991).
Values joined by “and” are separate entries in the source; they are usually repeats but may differ in a detail not shown here. Identical values can stand only once. Counter-ions that a name gives are not always drawn. Like-named read-outs stand apart in the source and are kept apart here.

Key:
[1] = Method: (§1) Either pig skin or human cadaver skin was used. It was placed in the cell dermal side down.
(§2) The receptor solution completely filled the receptor compartment.
(§3) All skin was stored frozen.
(§4) Each experiment consisted of three phases totaling 66 hours. […]
(§5) The injection volume was 10 »l.

Remark: listed apart in the source
[2] = Iontophoretic drug delivery through skin in vertical flow-through diffusion cell, HPLC of receptor solution (human skin); assay type: in vitro ADME; conditions: oxymorphone, 0 mg/ml oleic acid (control)
Method: as §1, §2, §3, §4, §5
Tests with enhancer may be compared to the control delivery rate with no oleic acid and using human skin. Tests summarized in Table 4 were done using oxymorphone in the donor compartment.

[3] = delivery of HM-HCl 0.1M, enhancer 100 mg/ml (10.0%), E/W 60/40, current 1 mA

CCCCCCCCCC(=O)O [Capric acid, decanoic acid]
Enhancement Factor [1, 3]: 3.9

CCCCCCCC(=O)O [Caprylic acid, octanoic acid]
Enhancement Factor ([1]; delivery of HM-HCl 0.1M, enhancer 100 mg/ml (10.0%), E/W 48/52, current 1 mA): 3.6

CCCCCCCCCCCC(=O)O [Lauric acid, dodecanoic acid]
Steady State Delivery Rate ± sd [1]: 4838 ± 766 µg/h
Enhancement Factor [1, 3]: 4.0

CCCCCCCC/C=C\CCCCCCCC(=O)O [Oleic acid, cis-9-octadecenoic acid]
steady state (phase II) delivery rate (Scheme B: 1% oleic acid + drug in passive phase I, phase II 0.1 M HM.HCl in DI W without enhancer, current on, pig skin): 2163 ± 354 »g/hr
delivery by the end of phase I (Scheme B: passive phase I (18 h, current off), 1% oleic acid + 0.1 M HM.HCl in E/W 67/33, pig skin): approximately 1800 »g/hr
Enhancement Factor (delivery of HM-HCl 0.1M, enhancer 10 mg/ml (1.0%), E/W 67/33, current 1 mA): 4.3
Enhancement Factor (delivery of Oxy-HCl 0.1M, enhancer 5 mg/ml (0.5%), E/W 67/33, current 1 mA, ratio of steady state rates with and without enhancer): 4.7
Enhancement Factor (delivery of oxymorphone-HCl, oleic acid 0.25 mg/ml (0.025%), E/W 48/52, 1 mA, pig skin): 0
Enhancement Factor (delivery of oxymorphone-HCl, oleic acid 0.50 mg/ml (0.050%), E/W 48/52, 1 mA, pig skin): 1.3
Enhancement Factor (delivery of oxymorphone-HCl, oleic acid 1.0 mg/ml (0.10%), E/W 52/48, 1 mA, pig skin): 1.9
Enhancement Factor (delivery of oxymorphone-HCl, oleic acid 2.0 mg/ml (0.20%), E/W 56/44, 1 mA, pig skin): 3.2
Enhancement Factor (delivery of oxymorphone-HCl, oleic acid 2.5 mg/ml (0.25%), E/W 56/44, 1 mA, pig skin, two identical tests on different days): 4.2 and 4.5
Enhancement Factor (delivery of oxymorphone-HCl, oleic acid 5.0 mg/ml (0.50%), E/W 67/33, 1 mA, pig skin): 4.7
Enhancement Factor ([1]; oleic acid 50 mg/ml (5%), solvent PG/E/W (30/45/20)): 4.3
Enhancement Factor ([1]; oleic acid 50 mg/ml (5%), solvent PG/E/W (65/20/10)): 2.5

CN1CC[C@]23c4c5ccc(O)c4O[C@H]2C(=O)CC[C@@]3(O)[C@H]1C5 [Oxy-HCl, oxymorphone hydrochloride]
Steady State Delivery Rate ± sd ([1]; Oxy-HCl 0.1M, no enhancer, E/W 67/33, current 1 mA): 1202 ± 133 µg/h
typical iontophoretic steady state delivery rate ([1]; current of 1 mA, without the addition of a fatty acid, human skin or pig skin): about 1200 »g/hr
Steady State Delivery Rate ± sd ([2]; current 0 mA): 27 ± 25 µg/h
Steady State Delivery Rate ± sd ([2]; current 0.25 mA): 228 ± 55 µg/h
Steady State Delivery Rate ± sd ([2]; current 0.50 mA): 542 ± 62 µg/h
Steady State Delivery Rate ± sd ([2]; current 0.75 mA): 910 ± 117 µg/h
Steady State Delivery Rate ± sd ([2]; current 1.0 mA): 1024 ± 276 µg/h
